{"source": "patent US9145352B2", "about": "“Quaternary N-(halomethyl) ammonium salts as therapeutic agents” (UNIVERSIDAD DE CALDAS, priority 2012, dated 2015)", "key": {"[1]": {"system": "axenic amastigotes of L. (V) panamensis", "experiment": "in vitro effectiveness against axenic amastigotes of L. (V) panamensis", "format": "cell-based", "from_the_text": "Then, a series of compounds analogous to compound 3 (characterized by a tail G being a diarylalkenyl moiety) were synthesized in order to assess their in vitro effectiveness against L. (V) panamensis, a pathogenic species which causes human mucocutaneous leishmaniasis. Other halogenated analogs of choline were also synthesized and included in this in vitro effectiveness study. FIG. 2 illustrates the compounds evaluated for their in vitro effectiveness against axenic amastigotes of L. (V) panamensis.\nThe table shown in FIG. 7 contains the EC50 values (molar amount of compound that kills 50% of parasites in sample) obtained against axenic amastigotes of L. (V) panamensis. […] N-(HALOMETHYL) AMMONIUM SALTS AS […] AGENTS were compared with the respective non-halogenated (i.e. N,N,N-trimethyl quaternary ammonium salts) and with two compounds commonly used to treat leishmaniasis (meglumine antimoniate and amphotericin B)."}, "[2]": {"system": "choline kinase of L. (L) infantum", "experiment": "kinetic studies with choline kinase", "format": "biochemical", "details": "lowering its catalytic efficiency", "from_the_text": "(§1) Phosphatidyl choline can be synthesized by the parasite following the traditional Kennedy pathway (Zhang and Beverley, 2010), in which choline is converted to phosphatidyl choline via a sequence of steps, each catalyzed by a specific enzyme. The first step involves the phosphorylation of choline with the enzyme choline kinase."}, "[3]": {"system": "promastigotes of L. tarentolae", "experiment": "in vitro uptake of choline by promastigotes", "format": "cell-based", "from_the_text": "as §1"}, "[4]": {"system": "promastigotes of L. tarentolae", "experiment": "in vitro production of phosphatidyl choline by parasites", "format": "cell-based", "from_the_text": "as §1"}, "Chagas disease": {"system": "Chagas disease", "details": "given soon after infection at the onset of the acute phase; cited from earlier work"}, "L. major promastigotes": {"system": "L. major promastigotes", "details": "cited from earlier work"}, "[5]": {"system": "amastigotes of L. (V) panamensis that have infected macrophage cells", "experiment": "in vitro effectiveness against L. (V) panamensis amastigotes that have infected macrophage cells", "format": "cell-based", "protocol": "Given that Leishmania parasites are known to infect monocyte cells, mostly macrophages and neutrophils, the in vitro effectiveness of some of the compounds was also tested on L. (V) panamensis in the amastigote stage that have been set to infect macrophage cells. FIG. 5 contains the list of compounds evaluated.\nOn the other hand, the results of the in vitro activity study of some […] N-(HALOMETHYL) AMMONIUM SALTS AS […] AGENTS shown in FIG. 5 against infected macrophage cells with Leishmania panamesis are shown in FIG. 8."}, "Indian visceral disease": {"system": "Indian visceral disease", "details": "cited from earlier work"}, "[6]": {"system": "cutaneous leishmaniasis lesion", "experiment": "golden hamster model for cutaneous leishmaniasis", "format": "in vivo", "details": "topical application in aqueous buffer (neutral pH) daily for ten days", "protocol": "It was decided then to carry out a preliminary in vivo animal study according to standard practices using the golden hamster model for cutaneous leishmaniasis, using the compounds with the better profile as therapeutic agents against leishmaniasis. For that purpose the in vivo effectiveness of compounds 3b, 13b and 14c were tested FIG. 6.\nIt was decided then to carry out a small in vivo animal study according to standard practices using the golden hamster model for cutaneous leishmaniasis. For that purpose the in vivo effectiveness of compounds 3b, 13b and 14c were tested. Treatment consisted of a topical application of the compound suspended in an aqueous buffer (neutral pH) daily for ten days."}}, "note": "Read-outs that look alike come from different tables or passages of the source."}
{"molecule": "C[N+](C)(CI)CCCCC=C(c1ccccc1)c1ccccc1", "note": "[Compound 14a]", "values": [{"measurement": "relative effectiveness against axenic amastigotes of L. (V) panamensis", "setting": "[1]; FIG. 7", "value": "the most effective"}, {"measurement": "inhibition of choline kinase", "setting": "[2]", "value": "able to inhibit this enzyme"}, {"measurement": "uptake of choline by promastigotes", "setting": "[3]", "value": "interferes with the in vitro uptake of choline"}, {"measurement": "production of phosphatidyl choline", "setting": "[4]", "value": "inhibits the in vitro production of phosphatidyl choline"}]}
{"molecule": "O=C(Cn1ccnc1[N+](=O)[O-])NCc1ccccc1", "note": "[benznidazole]", "values": [{"measurement": "effective in curing the disease", "setting": "Chagas disease", "value": "~100", "unit": "%"}]}
{"molecule": "CCCCCCCCCCCCCCCCCC[N+](C)(C)C.[Br-]", "note": "[octadecyltrimethyl ammonium bromide]", "values": [{"measurement": "growth of L. major promastigotes", "setting": "L. major promastigotes", "value": "inhibit the growth"}]}
{"molecule": "meglumine antimoniate", "values": [{"measurement": "EC50", "setting": "[1]", "value": "312 ± 18.6", "unit": "µM"}, {"measurement": "EC50 against infected macrophage cells with L. (V) panamensis", "setting": "[5]", "value": "6.33 ± 0.86", "unit": "µg/mL"}]}
{"molecule": "C[C@@H]1[C@H](O)[C@@H](C)/C=C/C=C/C=C/C=C/C=C/C=C/C=C/[C@H](O[C@@H]2O[C@H](C)[C@@H](O)[C@H](N)[C@@H]2O)C[C@@H]2O[C@](O)(C[C@@H](O)C[C@@H](O)[C@H](O)CC[C@@H](O)C[C@@H](O)CC(=O)O[C@H]1C)C[C@H](O)[C@H]2C(=O)O", "note": "[amphotericin B]", "values": [{"measurement": "EC50", "setting": "[1]", "value": "0.041 ± 0.001", "unit": "µM"}, {"measurement": "EC50 against infected macrophage cells with L. (V) panamensis", "setting": "[5]", "value": "0.05 ± 0.001", "unit": "µg/mL"}, {"measurement": "effective against the Indian visceral disease", "setting": "Indian visceral disease; dose of 5-10 mg/kg", "value": 90, "unit": "%"}, {"measurement": "effective against the Indian visceral disease", "setting": "Indian visceral disease; total dose of 15 mg/kg body weight", "value": 100, "unit": "%"}]}
{"molecule": "CCCCCCCCCCCC[N+](C)(C)C.[Br-]", "note": "[dodecyltrimethyl ammonium bromide]", "values": [{"measurement": "growth of L. major promastigotes", "setting": "L. major promastigotes", "value": "inhibit the growth"}]}
{"molecule": "C[N+](C)(CCl)CCC=C(c1ccccc1)c1ccccc1", "note": "[Compound 13b]", "values": [{"measurement": "cure of animals", "setting": "[6]", "value": "cure of the majority of the animals"}]}
